Measured values from PMC5218480 (PLoS ONE, 2017).

Tested on: MV-4-11 cells
Experiment: Gene expression microarray analysis (Affymetrix PrimeView) and GSEA
Assay type: cell-based, human
Set-up: RFU PODN (11730768_x_at) / Fold change /veh PODN (11730768_x_at) / RFU LINC00158 (11744669_a_at) / Fold change /veh LINC00158 (11744669_a_at) / RFU DUSP10 (11751237_a_at) / Fold change /veh DUSP10 (11751237_a_at) / RFU ID3 (11757404_x_at) / Fold change /veh ID3 (11757404_x_at) / RFU PLEKHG5 (11737974_s_at) / Fold change /veh PLEKHG5 (11737974_s_at) / RFU LRRC4B (11730491_at) / Fold change /veh LRRC4B (11730491_at) / RFU GIMAP4 (11747438_a_at) / Fold change /veh GIMAP4 (11747438_a_at) / RFU KRT8 (11758183_x_at) / Fold change /veh KRT8 (11758183_x_at) / RFU CNN1 (11734310_a_at) / Fold change /veh CNN1 (11734310_a_at) / RFU VPS37D (11726825_at) / Fold change /veh VPS37D (11726825_at) / RFU C10orf10 (11716522_x_at) / Fold change /veh C10orf10 (11716522_x_at) / RFU KIR2DL2 /// KIR2DL4 /// KIR2DL5A /// KIR2DL5B /// KIR2DS1 /// KIR2DS2 /// KIR2DS3 /// KIR2DS4 /// KIR3DL3 /// KIR3DL3 /// KIR3DS1 (11738374_at) / Fold change /veh KIR2DL2 /// KIR2DL4 /// KIR2DL5A /// KIR2DL5B /// KIR2DS1 /// KIR2DS2 /// KIR2DS3 /// KIR2DS4 /// KIR3DL3 /// KIR3DL3 /// KIR3DS1 (11738374_at) / RFU C1QL1 (11718748_at) / Fold change /veh C1QL1 (11718748_at) / RFU TMPRSS4 (11747572_a_at) / Fold change /veh TMPRSS4 (11747572_a_at) / RFU HAMP (11756126_x_at) / Fold change /veh HAMP (11756126_x_at) / RFU RNFT2 (11725882_a_at) / Fold change /veh RNFT2 (11725882_a_at) / RFU NR4A2 (11747474_a_at) / Fold change /veh NR4A2 (11747474_a_at) / RFU ABCC12 (11746883_a_at) / Fold change /veh ABCC12 (11746883_a_at) / RFU TMEM136 (11760407_x_at) / Fold change /veh TMEM136 (11760407_x_at) / RFU CLDN22 /// WWC2 (11732394_at) / Fold change /veh CLDN22 /// WWC2 (11732394_at) / RFU HLA-DPB1 (11760878_x_at) / Fold change /veh HLA-DPB1 (11760878_x_at) / RFU SPINT1 (11716480_a_at) / Fold change /veh SPINT1 (11716480_a_at) / RFU GAP43 (11754022_s_at) / Fold change /veh GAP43 (11754022_s_at) / RFU A4GNT (11735810_at) / Fold change /veh A4GNT (11735810_at) / RFU PRB3 (11715151_x_at) / Fold change /veh PRB3 (11715151_x_at) / RFU TUBB4B (11761932_at) / Fold change /veh TUBB4B (11761932_at) / RFU CAPN14 (11732068_a_at) / Fold change /veh CAPN14 (11732068_a_at) / RFU TMCC2 (11721928_a_at) / Fold change /veh TMCC2 (11721928_a_at) / RFU IRGQ (11745062_a_at) / Fold change /veh IRGQ (11745062_a_at) / RFU FAM174B (11720279_a_at) / Fold change /veh FAM174B (11720279_a_at) / RFU TMPRSS4 (11748680_a_at) / Fold change /veh TMPRSS4 (11748680_a_at) / RFU FAM212B (11763350_a_at) / Fold change /veh FAM212B (11763350_a_at) / RFU PLEKHG5 (11743358_a_at) / Fold change /veh PLEKHG5 (11743358_a_at) / RFU ZSCAN30 (11745921_a_at) / Fold change /veh ZSCAN30 (11745921_a_at) / RFU CMKLR1 (11741424_a_at) / Fold change /veh CMKLR1 (11741424_a_at) / RFU LOC101060620 /// MAPK8IP1 (11723275_at) / Fold change /veh LOC101060620 /// MAPK8IP1 (11723275_at) / RFU SPTSSB (11747773_x_at) / Fold change /veh SPTSSB (11747773_x_at) / RFU PRSS12 (11739890_at) / Fold change /veh PRSS12 (11739890_at) / RFU BIN1 (11741810_x_at) / Fold change /veh BIN1 (11741810_x_at) / RFU WNT11 (11732464_a_at) / Fold change /veh WNT11 (11732464_a_at) / RFU C10orf10 (11716521_a_at) / Fold change /veh C10orf10 (11716521_a_at) / RFU C5orf56 (11738089_at) / Fold change /veh C5orf56 (11738089_at) / RFU CYB561 (11721691_x_at) / Fold change /veh CYB561 (11721691_x_at) / RFU ANKRD19P (11752326_a_at) / Fold change /veh ANKRD19P (11752326_a_at) / RFU OR2T12 /// OR2T33 /// OR2T8 (11738714_s_at) / Fold change /veh OR2T12 /// OR2T33 /// OR2T8 (11738714_s_at) / RFU VCAN (11748164_a_at) / Fold change /veh VCAN (11748164_a_at) / RFU JSRP1 (11732532_at) / Fold change /veh JSRP1 (11732532_at) / RFU KRTAP10-11 (11738290_x_at) / Fold change /veh KRTAP10-11 (11738290_x_at) / RFU MYO3A (11730013_a_at) / Fold change /veh MYO3A (11730013_a_at) / RFU EBF3 (11725865_a_at) / Fold change /veh EBF3 (11725865_a_at) / RFU CAMK2N1 (11719241_x_at) / Fold change /veh CAMK2N1 (11719241_x_at) / RFU C5orf56 (11738088_a_at) / Fold change /veh C5orf56 (11738088_a_at) / RFU OLFML3 (11715873_a_at) / Fold change /veh OLFML3 (11715873_a_at) / RFU LOC100653217 /// NTM (11731650_a_at) / Fold change /veh LOC100653217 /// NTM (11731650_a_at) / RFU MAPK11 (11762145_a_at) / Fold change /veh MAPK11 (11762145_a_at) / RFU FIZ1 (11724087_x_at) / Fold change /veh FIZ1 (11724087_x_at) / RFU OASL (11726364_x_at) / Fold change /veh OASL (11726364_x_at) / RFU SOX15 (11748057_x_at) / Fold change /veh SOX15 (11748057_x_at) / RFU CD79A (11719716_a_at) / Fold change /veh CD79A (11719716_a_at) / RFU HIST1H1D (11736915_at) / Fold change /veh HIST1H1D (11736915_at) / RFU CASKIN2 (11723855_a_at) / Fold change /veh CASKIN2 (11723855_a_at) / RFU LOC730098 (11760151_x_at) / Fold change /veh LOC730098 (11760151_x_at) / RFU OR4N2 (11742367_at) / Fold change /veh OR4N2 (11742367_at) / RFU PRRT2 (11749266_a_at) / Fold change /veh PRRT2 (11749266_a_at) / RFU SNX32 (11753110_a_at) / Fold change /veh SNX32 (11753110_a_at) / RFU CDHR5 (11726645_a_at) / Fold change /veh CDHR5 (11726645_a_at) / RFU RCAN1 (11760418_a_at) / Fold change /veh RCAN1 (11760418_a_at) / RFU FAM167A (11723789_a_at) / Fold change /veh FAM167A (11723789_a_at) / RFU FAM26E (11764081_at) / Fold change /veh FAM26E (11764081_at) / RFU ISYNA1 (11749810_s_at) / Fold change /veh ISYNA1 (11749810_s_at) / RFU ACY1 (11761880_at) / Fold change /veh ACY1 (11761880_at) / RFU 11764098_at / Fold change /veh 11764098_at / RFU SAMD14 (11745864_x_at) / Fold change /veh SAMD14 (11745864_x_at) / RFU NPB (11741838_a_at) / Fold change /veh NPB (11741838_a_at) / RFU TMPRSS6 (11731388_a_at) / Fold change /veh TMPRSS6 (11731388_a_at) / RFU KRTAP10-2 (11738614_at) / Fold change /veh KRTAP10-2 (11738614_at) / RFU ARHGAP8 /// PRR5-ARHGAP8 (11727945_x_at) / Fold change /veh ARHGAP8 /// PRR5-ARHGAP8 (11727945_x_at) / RFU KRTAP5-7 /// NADSYN1 (11734609_at) / Fold change /veh KRTAP5-7 /// NADSYN1 (11734609_at) / RFU RASL12 (11751679_a_at) / Fold change /veh RASL12 (11751679_a_at) / RFU CDKN2B (11736163_a_at) / Fold change /veh CDKN2B (11736163_a_at) / RFU PRF1 (11729649_at) / Fold change /veh PRF1 (11729649_at) / RFU, ZNF638 /// ZNF638-IT1 / Fold change vs veh, ZNF638 /// ZNF638-IT1 / RFU, PANK3 / Fold change vs veh, PANK3 / RFU, SH3YL1 / Fold change vs veh, SH3YL1 / RFU, ZEB2 / Fold change vs veh, ZEB2 / RFU, NRIP1 / Fold change vs veh, NRIP1 / RFU, PTTG1IP / Fold change vs veh, PTTG1IP / RFU, CAPN2 / Fold change vs veh, CAPN2 / RFU, MED14 / Fold change vs veh, MED14 / RFU, SNORA58 / Fold change vs veh, SNORA58 / RFU, C1orf63 / Fold change vs veh, C1orf63 / RFU, LRRFIP1 / Fold change vs veh, LRRFIP1 / RFU, NDUFAF7 / Fold change vs veh, NDUFAF7 / RFU, SLC12A2 / Fold change vs veh, SLC12A2 / RFU, IBTK / Fold change vs veh, IBTK / RFU, ESF1 / Fold change vs veh, ESF1 / Fold change vs veh, TMEM50B / RFU, TAOK1 / Fold change vs veh, TAOK1 / RFU, ACBD3 / Fold change vs veh, ACBD3 / RFU, TMA16 / Fold change vs veh, TMA16 / RFU, RWDD3 / Fold change vs veh, RWDD3 / RFU, BCAT1 / Fold change vs veh, BCAT1 / RFU, EDEM3 / Fold change vs veh, EDEM3 / RFU, TMEM33 / Fold change vs veh, TMEM33 / RFU, WDR75 / Fold change vs veh, WDR75 / RFU, AHCTF1 / Fold change vs veh, AHCTF1 / RFU, TFRC / Fold change vs veh, TFRC / RFU, ZDHHC17 / Fold change vs veh, ZDHHC17 / RFU, NOM1 / Fold change vs veh, NOM1 / RFU, ARL8B / Fold change vs veh, ARL8B / RFU, ZBTB11 / Fold change vs veh, ZBTB11 / RFU, TAMM41 / Fold change vs veh, TAMM41 / RFU, KIAA1704 /// LOC100996395 / Fold change vs veh, KIAA1704 /// LOC100996395 / RFU, ING1 / Fold change vs veh, ING1 / RFU, TRMT61B / Fold change vs veh, TRMT61B / RFU, FUBP3 / Fold change vs veh, FUBP3 / RFU, TP53 / Fold change vs veh, TP53 / RFU, TNKS2 / Fold change vs veh, TNKS2 / RFU, ZFP14 / Fold change vs veh, ZFP14 / RFU, ACTR2 / Fold change vs veh, ACTR2 / RFU, PPP3R1 / Fold change vs veh, PPP3R1 / RFU, PIK3R1 / Fold change vs veh, PIK3R1 / RFU, HNRNPA1 / Fold change vs veh, HNRNPA1 / RFU, RNF170 / Fold change vs veh, RNF170 / RFU, ZNF28 / Fold change vs veh, ZNF28 / RFU, RNGTT / Fold change vs veh, RNGTT / RFU, OGT / Fold change vs veh, OGT / RFU, BRD1 / Fold change vs veh, BRD1 / RFU, MARS / Fold change vs veh, MARS / RFU, ZNF655 / Fold change vs veh, ZNF655 / RFU, FAHD1 / Fold change vs veh, FAHD1 / RFU, BDP1 / Fold change vs veh, BDP1 / RFU, LRRCC1 / Fold change vs veh, LRRCC1 / RFU, ARID1A / Fold change vs veh, ARID1A / RFU, ZNF146 / Fold change vs veh, ZNF146 / RFU, ZNF330 / Fold change vs veh, ZNF330 / RFU, GPN3 / Fold change vs veh, GPN3 / RFU, C9orf123 / Fold change vs veh, C9orf123 / RFU, N4BP2L2 / Fold change vs veh, N4BP2L2 / RFU, ARFIP1 / Fold change vs veh, ARFIP1 / RFU, FAM179B / Fold change vs veh, FAM179B / RFU, BCL10 / Fold change vs veh, BCL10 / RFU, UHRF1BP1L / Fold change vs veh, UHRF1BP1L / RFU, BET1 / Fold change vs veh, BET1 / RFU, CNOT2 / Fold change vs veh, CNOT2 / RFU, ZNF268 / Fold change vs veh, ZNF268 / Fold change vs veh, ZNF507 / RFU, DGCR2 / Fold change vs veh, DGCR2 / RFU, WDSUB1 / Fold change vs veh, WDSUB1 / Fold change vs veh, HSP90B1 /// MIR3652 / RFU, ADSS / Fold change vs veh, ADSS / RFU, GK / Fold change vs veh, GK / RFU, ZNF148 / Fold change vs veh, ZNF148 / RFU, TAF9 / Fold change vs veh, TAF9 / RFU, SLC1A5 / Fold change vs veh, SLC1A5 / RFU, SLMO2 / Fold change vs veh, SLMO2 / RFU, ABCC4 / Fold change vs veh, ABCC4 / RFU, LOC101060439 /// RAP1B / Fold change vs veh, LOC101060439 /// RAP1B / RFU, RFX7 / Fold change vs veh, RFX7 / RFU, GTPBP10 / Fold change vs veh, GTPBP10 / RFU, CNEP1R1 / Fold change vs veh, CNEP1R1 / RFU, BIVM-ERCC5 /// ERCC5 / Fold change vs veh, BIVM-ERCC5 /// ERCC5 / RFU, ILF3 / Fold change vs veh, ILF3 / RFU 11762660_at / Fold change /veh 11762660_at / RFU VCAN (11757783_s_at) / Fold change /veh VCAN (11757783_s_at) / RFU DDX43 (11728927_at) / Fold change /veh DDX43 (11728927_at) / RFU KRT8 (11758188_x_at) / Fold change /veh KRT8 (11758188_x_at) / RFU NKD1 (11759106_at) / Fold change /veh NKD1 (11759106_at) / RFU SRD5A1 (11742802_a_at) / Fold change /veh SRD5A1 (11742802_a_at) / RFU TPSAB1 /// TPSB2 (11721975_s_at) / Fold change /veh TPSAB1 /// TPSB2 (11721975_s_at) / RFU GSTM3 (11746129_a_at) / Fold change /veh GSTM3 (11746129_a_at) / RFU IL23R (11737362_x_at) / Fold change /veh IL23R (11737362_x_at) / RFU TMEM51 (11727254_a_at) / Fold change /veh TMEM51 (11727254_a_at) / RFU PIWIL2 (11732686_x_at) / Fold change /veh PIWIL2 (11732686_x_at) / RFU ORM1 (11744905_x_at) / Fold change /veh ORM1 (11744905_x_at) / RFU CCDC152 (11743942_at) / Fold change /veh CCDC152 (11743942_at) / RFU ECM1 (11717891_a_at) / Fold change /veh ECM1 (11717891_a_at) / RFU IL23R (11748794_a_at) / Fold change /veh IL23R (11748794_a_at) / RFU TNFAIP8L3 (11732012_x_at) / Fold change /veh TNFAIP8L3 (11732012_x_at) / RFU MBOAT4 (11741988_at) / Fold change /veh MBOAT4 (11741988_at) / RFU 11764193_at / Fold change /veh 11764193_at / RFU TMEM53 (11763286_at) / Fold change /veh TMEM53 (11763286_at) / RFU MAGEB2 (11727129_at) / Fold change /veh MAGEB2 (11727129_at) / RFU TMEM200A (11744735_a_at) / Fold change /veh TMEM200A (11744735_a_at) / RFU CCDC152 (11751479_a_at) / Fold change /veh CCDC152 (11751479_a_at) / RFU FAM211A (11726209_a_at) / Fold change /veh FAM211A (11726209_a_at) / RFU RGS16 (11746705_a_at) / Fold change /veh RGS16 (11746705_a_at) / RFU VCAN (11755009_s_at) / Fold change /veh VCAN (11755009_s_at) / RFU RHOB (11743442_s_at) / Fold change /veh RHOB (11743442_s_at) / RFU RGS16 (11720943_a_at) / Fold change /veh RGS16 (11720943_a_at) / RFU RGS16 (11720944_at) / Fold change /veh RGS16 (11720944_at) / RFU, VPS4B / Fold change vs veh, VPS4B / RFU, CREB1 / Fold change vs veh, CREB1 / RFU, DNAJC13 / Fold change vs veh, DNAJC13 / RFU, GNAQ / Fold change vs veh, GNAQ / RFU, CDK5R1 / Fold change vs veh, CDK5R1 / RFU, ZRANB3 / Fold change vs veh, ZRANB3 / RFU, CUL4A / Fold change vs veh, CUL4A / RFU, CCNY / Fold change vs veh, CCNY / RFU, UFL1 / Fold change vs veh, UFL1 / RFU, COG3 / Fold change vs veh, COG3 / RFU, DIAPH2 / Fold change vs veh, DIAPH2 / RFU, SKA2 / Fold change vs veh, SKA2 / RFU, AFF3 / Fold change vs veh, AFF3 / RFU, LMF1 / Fold change vs veh, LMF1 / RFU, IPO11 / Fold change vs veh, IPO11 / RFU, DFFB / Fold change vs veh, DFFB / RFU, FOXP1 / Fold change vs veh, FOXP1 / RFU, CARD8 / Fold change vs veh, CARD8 / RFU, STRN3 / Fold change vs veh, STRN3 / RFU, ADK / Fold change vs veh, ADK / RFU, RASSF2 / Fold change vs veh, RASSF2 / RFU, WIPF1 / Fold change vs veh, WIPF1 / RFU, LARP1B / Fold change vs veh, LARP1B / RFU, RASA1 / Fold change vs veh, RASA1 / RFU, RB1 / Fold change vs veh, RB1 / RFU, PPFIA1 / Fold change vs veh, PPFIA1 / RFU, MAT2A / Fold change vs veh, MAT2A / RFU, CCT5 / Fold change vs veh, CCT5 / RFU, WDR92 / Fold change vs veh, WDR92 / RFU, CUX1 / Fold change vs veh, CUX1 / RFU, TTC7A / Fold change vs veh, TTC7A / RFU, TMEM135 / Fold change vs veh, TMEM135 / RFU, DEPTOR / Fold change vs veh, DEPTOR / RFU, CPM / Fold change vs veh, CPM / RFU, DNAJB6 / Fold change vs veh, DNAJB6 / RFU, CACNA2D3 / Fold change vs veh, CACNA2D3 / RFU, DTX4 / Fold change vs veh, DTX4 / RFU, TFCP2 / Fold change vs veh, TFCP2 / RFU, GMCL1 /// GMCL1P1 / Fold change vs veh, GMCL1 /// GMCL1P1 / RFU, AEBP2 / Fold change vs veh, AEBP2 / RFU, SNHG1 /// SNORD22 /// SNORD25 /// SNORD26 /// SNORD27 /// SNORD28 /// SNORD29 /// SNORD31 / Fold change vs veh, SNHG1 /// SNORD22 /// SNORD25 /// SNORD26 /// SNORD27 /// SNORD28 /// SNORD29 /// SNORD31 / Fold change (Aza/veh), C12orf56 (ProbeSet 11735607_a_at) / Fold change (ACY-1035/veh), C12orf56 (ProbeSet 11735607_a_at) / Fold change (Aza/veh), FGFR1OP (ProbeSet 11751329_s_at) / Fold change (ACY-1035/veh), FGFR1OP (ProbeSet 11751329_s_at) / Fold change (Aza/veh), VPS36 (ProbeSet 11739960_a_at) / Fold change (ACY-1035/veh), VPS36 (ProbeSet 11739960_a_at) / RFU SYPL1 (11715823_x_at) / Fold change /veh SYPL1 (11715823_x_at) / RFU IGFBP7 (11715501_s_at) / Fold change /veh IGFBP7 (11715501_s_at) / RFU REEP3 (11722064_at) / Fold change /veh REEP3 (11722064_at) / RFU IGLL1 (11728026_x_at) / Fold change /veh IGLL1 (11728026_x_at): dose or concentration left out as unconfirmed
Conditions: ProbeSet 11755425_a_at; LIST B

With `Nc1ccc(-c2cccs2)cc1NC(=O)c1ccc2c(c1)cc(C1CC1)n2CCN1CCOCC1` [ACY-1035] the “Fold change vs veh, FAM179B” value was 1.02.
